Reference: PubChem BioAssay AID330 (DTP/NCI, 2004)
Where “and” joins values, the source holds several entries; their conditions need not be identical. Equal entries are not always repeated. Toxic doses and inconclusive results are not listed.

System: P388 leukemia ip, CD2F1 mice, survival T/C
Assay: NCI In Vivo Anticancer Drug Screen. Data for tumor model P388 Leukemia (intraperitoneal) in CD2F1 (CDF1) mice
Details: endpoint: median survival time, higher = longer survival
Outline: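 Mice carrying the transplanted tumor received test compound or vehicle. Survival was recorded in each group, and the value is the treated-group measurement divided by that of the vehicle-treated control group.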

[1] = dose: 100.0 mg/kg/injection, schedule: Q01DX001 (ip), vehicle: Klucel (hydroxypropylcellulose) (HPC)
[2] = dose: 200.0 mg/kg/injection, schedule: Q01DX001 (ip), vehicle: Klucel (hydroxypropylcellulose) (HPC)
[3] = dose: 400.0 mg/kg/injection, schedule: Q01DX001 (ip), vehicle: Klucel (hydroxypropylcellulose) (HPC)

With Cc1cc(N(CCO)CCO)c(OCc2ccccc2)c(N(CCO)CCO)c1 the T/C (dose: 60.0 mg/kg/injection, schedule: Q01DX005 (ip), vehicle: Klucel (hydroxypropylcellulose) (HPC)) was 99 % of control, the T/C (dose: 120.0 mg/kg/injection, schedule: Q01DX005 (ip), vehicle: Klucel (hydroxypropylcellulose) (HPC)) was 100 % of control and the T/C (dose: 240.0 mg/kg/injection, schedule: Q01DX005 (ip), vehicle: Klucel (hydroxypropylcellulose) (HPC)) was 98 % of control.

CC(=O)c1ccc[n+](Cc2ccc([N+](=O)[O-])cc2)c1 was tested, and the T/C (dose: 25.0 mg/kg/injection, schedule: Q01DX009 (ip), vehicle: saline with Tween-80) was 95 % of control, the T/C (dose: 50.0 mg/kg/injection, schedule: Q01DX009 (ip), vehicle: saline with Tween-80) was 100 % of control and the T/C (dose: 100.0 mg/kg/injection, schedule: Q01DX009 (ip), vehicle: saline with Tween-80) was 90 % of control.

In the case of CNC(=O)OCCC(OC(=O)NC)C1CCC2C3CC=C4CC(OC(C)=O)CCC4(C)C3CCC12C (configuration not stated), the T/C [1] is reported as 103 % of control, the T/C [2] is reported as 104 % of control and the T/C [3] is reported as 110 % of control.

In the case of Cc1cc(N/N=C/c2ccccn2)nc2ccccc12, the T/C (dose: 12.5 mg/kg/injection, schedule: Q01DX005 (ip), vehicle: Klucel (hydroxypropylcellulose) (HPC)) is reported as 101 % of control and the T/C (dose: 25.0 mg/kg/injection, schedule: Q01DX005 (ip), vehicle: Klucel (hydroxypropylcellulose) (HPC)) is reported as 112 % of control.

For OC1c2ccccc2-c2ccccc2C1O (configuration not stated), the T/C (dose: 100.0 mg/kg/injection, schedule: Q04DX002 (ip), vehicle: saline with Tween-80) was 101 % of control and 102 % of control, the T/C (dose: 200.0 mg/kg/injection, schedule: Q04DX002 (ip), vehicle: saline with Tween-80) was 101 % of control and 97 % of control and the T/C (dose: 400.0 mg/kg/injection, schedule: Q04DX002 (ip), vehicle: saline with Tween-80) was 101 % of control.

With C/C=C1\CN2CC[C@H]1C[C@H]2[C@H](O)c1ccnc2ccc(NCCO)cc12 the T/C (dose: 50.0 mg/kg/injection, schedule: Q01DX005 (ip), vehicle: saline) was 94 % of control, the T/C (dose: 100.0 mg/kg/injection, schedule: Q01DX005 (ip), vehicle: saline) was 99 % of control and the T/C (dose: 200.0 mg/kg/injection, schedule: Q01DX005 (ip), vehicle: saline) was 99 % of control.

CN(C)c1ccc(C(=O)C2(Cl)CCCCC2)cc1 was tested, and the T/C [1] was 97 % of control, the T/C [2] was 100 % of control and the T/C [3] was 96 % of control.

COc1ccc(CC#N)c(C(=O)O)c1 was tested, and the T/C (dose: 50.0 mg/kg/injection, schedule: Q01DX005 (ip), vehicle: Klucel (hydroxypropylcellulose) (HPC)) was 106 % of control, the T/C (dose: 100.0 mg/kg/injection, schedule: Q01DX005 (ip), vehicle: Klucel (hydroxypropylcellulose) (HPC)) was 103 % of control and the T/C (dose: 200.0 mg/kg/injection, schedule: Q01DX005 (ip), vehicle: Klucel (hydroxypropylcellulose) (HPC)) was 101 % of control.

In the case of Cc1nc(N)nc(N)c1-c1ccc(Cl)c(Cl)c1, the T/C (dose: 1.0 mg/kg/injection, schedule: Q01DX009 (ip), vehicle: saline) is reported as 109 % of control, the T/C (dose: 2.0 mg/kg/injection, schedule: Q01DX009 (ip), vehicle: saline) is reported as 123 % of control and the T/C (dose: 3.0 mg/kg/injection, schedule: Q01DX009 (ip), vehicle: saline with Tween-80) is reported as 163 % of control. The T/C (dose: 4.0 mg/kg/injection, schedule: Q01DX009 (ip), vehicle: saline) was 98 % of control, the T/C (dose: 4.0 mg/kg/injection, schedule: Q04DX002 (ip), vehicle: saline with Tween-80) was 104 % of control and the T/C (dose: 6.0 mg/kg/injection, schedule: Q01DX009 (ip), vehicle: saline with Tween-80) was 86 % of control. The T/C (dose: 6.0 mg/kg/injection, schedule: Q04DX002 (ip), vehicle: saline with Tween-80) was 104 % of control, the T/C (dose: 6.25 mg/kg/injection, schedule: Q04DX003 (ip), vehicle: saline with Tween-80) was 120 % of control and the T/C (dose: 8.0 mg/kg/injection, schedule: Q01DX009 (ip), vehicle: saline) was 98 % of control. For the same molecule, the T/C (dose: 8.0 mg/kg/injection, schedule: Q04DX002 (ip), vehicle: saline with Tween-80) was 99 % of control, the T/C (dose: 10.0 mg/kg/injection, schedule: Q04DX002 (ip), vehicle: saline with Tween-80) was 107 % of control and the T/C (dose: 12.0 mg/kg/injection, schedule: Q04DX002 (ip), vehicle: saline with Tween-80) was 123 % of control. The T/C (dose: 20.0 mg/kg/injection, schedule: Q04DX002 (ip), vehicle: saline) was 99 % of control, the T/C (dose: 25.0 mg/kg/injection, schedule: Q04DX003 (ip), vehicle: saline with Tween-80) was 155 % of control and the T/C (dose: 30.0 mg/kg/injection, schedule: Q04DX002 (ip), vehicle: saline) was 107 % of control. The T/C (dose: 40.0 mg/kg/injection, schedule: Q04DX002 (ip), vehicle: saline) was 119 % of control.

c1ccc(CN2Cc3c(n(-c4ccccc4)c4ccccc34)C2)cc1 was tested, and the T/C (dose: 100.0 mg/kg/injection, schedule: Q04DX003 (ip), vehicle: Klucel (hydroxypropylcellulose) (HPC)) was 105 % of control, the T/C (dose: 200.0 mg/kg/injection, schedule: Q04DX003 (ip), vehicle: Klucel (hydroxypropylcellulose) (HPC)) was 112 % of control and the T/C (dose: 400.0 mg/kg/injection, schedule: Q04DX003 (ip), vehicle: Klucel (hydroxypropylcellulose) (HPC)) was 114 % of control.
